We go through 16 compounds from patent US4613598A, “Piperazine derivatives and their acid addition salts” (Mitsubishi Chemical Industries Limited, priority 1984, dated 1986).

Each structure is given as a SMILES string. Counter-ions that a name gives are not always drawn.

The subject of data set [1] is spontaneous hypertensive rats. In words: Hypotensive activity in non-narcotized, heart-catheterized spontaneous hypertensive rats. Format: in vivo. The settings on record: Rattus norvegicus, oral, lowest blood pressure during 6 hours after administration, read-out: Hypotensive ratio. As to the method:
Hypotensive activity As the experimental animal, spontaneous hypertensive rats 5 to 7 months after birth with a body weight of 300 to 370 g were used. The blood pressure and the heart beat of the non-narcotized, heart-catheterized rats were operatively determined to calculate the averages in blood pressure and heart beat prior to the administration of the present compound. Successively during 6 hours after orally administering the present compound, the blood pressure and the heart beat were determined to calculate the hypotensive ratio by the following formula: [formula] wherein X is the average in blood pressure before administration; and Y is the value of the lowest blood pressure after the administration.

Data set [2] in a line: Acute toxicity (LD50, Litchfield-Wilcoxon method), oral administration to mouse. The settings on record: in vivo. How it is done: The present compound was orally administered to mouse and the acute toxicity value (LD50) was calculated according to Litchfield-Wilcoxonmethod.

As to `COc1ccc(C(O)CN2CCN(c3ccccc3)CC2)cc1NC(N)=O` (centres unmarked) [Control 3, reference compound], in data set [1], the inhibition in vivo at 3 mg/kg was determined as 5.6% and the inhibition in vivo at 10 mg/kg worked out at 9.4%.

As to `COc1ccccc1N1CCN(CCCCC(=O)c2ccc([S+](C)[O-])c(S(N)(=O)=O)c2)CC1` (centres unmarked) [Compound No. 7, 5-[5-[4-(2-methoxyphenyl)-1-piperazinyl]valeryl]-2-methylsulfinyl-benzenesulfonamide], in data set [1], the inhibition in vivo at 1 mg/kg was determined as 8.9%, the inhibition in vivo at 3 mg/kg turned out to be 17.5% and the inhibition in vivo at 10 mg/kg amounted to 31.3%.

As for `O=C(O)c1cc(C(O)CCCCN2CCN(c3ccccn3)CC2)ccc1O` (centres unmarked) [Compound No. 17, 5-[5-[4-(2-pyridyl)-1-piperazinyl]-1-hydroxypentyl]salicylic acid], in data set [1], the inhibition in vivo at 3 mg/kg was determined as 21.1% and the inhibition in vivo at 10 mg/kg amounted to 15.7%.

As a reminder, the LD50 is the dose at which mortality reaches 50%. As to `COc1ccccc1N1CCN(CCCCC(=O)c2ccc(O)c(C(N)=O)c2)CC1` [Compound No. 12, 5-[5-[4-(2-methoxyphenyl)-1-piperazinyl]valeryl]-salicylamide], in data set [2], the LD50 was > 3000 mg/kg. In data set [1], the inhibition in vivo at 3 mg/kg came out at 35.2%.

As to `COc1ccccc1N1CCN(CCCCC(=O)c2ccc(SC)c(NC(N)=O)c2)CC1` [Compound No. 34, 5-[5-[4-(2-methoxyphenyl)-1-piperazinyl]valeryl]-2-methylthio-N-carbamoylaniline], in data set [1], the inhibition in vivo at 1 mg/kg was 17.6%, the inhibition in vivo at 3 mg/kg stood at 28.9% and the inhibition in vivo at 10 mg/kg is 39.9%.

As to `COc1ccc(C(=O)CCCCN2CCN(c3ccccc3OC)CC2)cc1NS(C)(=O)=O` [Compound No. 29, 5-[5-[4-(2-methoxyphenyl)-1-piperazinyl]valeryl]-2-methoxy-N-methanesulfonylaniline dihydrochloride], in data set [1], the inhibition in vivo at 1 mg/kg was found to be 22.8% and the inhibition in vivo at 3 mg/kg worked out at 37.3%.

In the case of `COc1ccc(C(=O)CCCCN2CCN(c3ccccc3OC)CC2)cc1NC(N)=O` [Compound No. 26, 5-[5-[4-(2-methoxyphenyl)-1-piperazinyl]valeryl]-2-methoxy-N-carbamoylaniline], in data set [2], the LD50 turned out to be 2700 mg/kg. For the same compound, in data set [1], the inhibition in vivo at 3 mg/kg was determined as 31.8%.

On to `O=C1CSc2ccc(C(=O)CCCN3CCN(c4ccccn4)CC3)cc2N1` [Compound No. 49], for which, in data set [1], the inhibition in vivo at 1 mg/kg was 10.9% and the inhibition in vivo at 3 mg/kg was determined as 45.7%.

On to `COc1ccccc1N1CCN(CCCCC(=O)c2ccc([S+](C)[O-])c(NC(N)=O)c2)CC1` (centres unmarked) [Compound No. 35, 5-[5-[4-(2-methoxyphenyl)-1-piperazinyl]valeryl]-2-methylsulfinyl-N-carbamoylaniline], for which the LD50 in data set [2] is > 3000 mg/kg. In addition, in data set [1], the inhibition in vivo at 0.3 mg/kg was 16.5%, the inhibition in vivo at 1 mg/kg stood at 16.1%, the inhibition in vivo at 3 mg/kg was found to be 25.6% and the inhibition in vivo at 10 mg/kg stood at 47.9%.

`COc1ccccc1N1CCN(CCCCC(=O)c2ccc(O)c(NC(C)=O)c2)CC1` [Compound No. 23, 5-[5-[4-(2-methoxyphenyl)-1-piperazinyl]valeryl]-2-hydroxyacetanilide]: the inhibition in vivo at 3 mg/kg in data set [1] is 36.5%.

As for `NC(=O)c1cc(C(=O)CCCCN2CCN(c3ccccc3Cl)CC2)ccc1O` [Compound No. 13, 5-[5-[4-(2-chlorophenyl)-1-piperazinyl]valeryl]salicylamide], in data set [1], the inhibition in vivo at 3 mg/kg was determined as 19.7% and the inhibition in vivo at 10 mg/kg is 16.5%.

Consider `COc1ccccc1N1CCN(CCCCC(=O)c2ccc(SC)c(S(N)(=O)=O)c2)CC1` [Compound No. 6, 5-[5-[4-(2-methoxyphenyl)-1-piperazinyl]valeryl]-2-methylthio-benzenesulfonamide], for which the LD50 in data set [2] was > 3000 mg/kg. Besides, in data set [1], the inhibition in vivo at 1 mg/kg came out at 16.1%, the inhibition in vivo at 3 mg/kg is 24.3% and the inhibition in vivo at 10 mg/kg stood at 23%.

Turning to `NC(=O)c1cc(C(=O)CN2CCN(c3ccccc3)CC2)ccc1O` [Control 2, 5[2(4-phenyl-1-piperazinyl)acetyl]salicylamide, reference compound], in data set [1], the inhibition in vivo at 1 mg/kg came out at 9.9%, the inhibition in vivo at 3 mg/kg stood at 13.7% and the inhibition in vivo at 10 mg/kg was 6.6%.

With `COc1ccccc1N1CCN(CCCCC(=O)c2ccc3c(c2)NC(=O)CCO3)CC1` [Compound No. 41, 7-[5-[4-(2-methoxyphenyl)-1-piperazinyl]valeryl]-2,3,4,5-tetrahydro-1,5-benzoxazepine-4-one], in data set [1], the inhibition in vivo at 0.3 mg/kg amounted to 25.9%, the inhibition in vivo at 1 mg/kg amounted to 33% and the inhibition in vivo at 3 mg/kg was determined as 35.6%.

Turning to `COc1ccc(C(O)CN2CCN(c3ccccc3)CC2)cc1S(N)(=O)=O` (centres unmarked) [Control 1, reference compound], in data set [1], the inhibition in vivo at 1 mg/kg worked out at 10.5% and the inhibition in vivo at 10 mg/kg is 2.5%.

Take `COc1ccccc1N1CCN(CCCCC(=O)c2ccc(OC)c(S(N)(=O)=O)c2)CC1` [Compound No. 2, 5-[5-[4-(2-methoxyphenyl)-1-piperazinyl]valeryl]-2-methoxy-benzenesulfonamide dihydrochloride]: in data set [1], the inhibition in vivo at 0.3 mg/kg turned out to be 10.5%, the inhibition in vivo at 1 mg/kg was 34.6% and the inhibition in vivo at 3 mg/kg stood at 19.7%.
